Assay results taken from PubChem BioAssay (NCI).
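Cultured in 96-well plates, cells were exposed to test compound for 48 hours across five concentrations. GI50 marks 50% less growth. TGI denotes the concentration required for complete inhibition of growth.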

Key:
Experiment in all cases: NCI tumour cell line growth inhibition, 48 h
UACC-257 melanoma = tested on: UACC-257 melanoma
SK-OV-3 ovarian = tested on: SK-OV-3 ovarian
SK-MEL-28 melanoma = tested on: SK-MEL-28 melanoma
IGROV1 ovarian = tested on: IGROV1 ovarian
OVCAR-5 ovarian = tested on: OVCAR-5 ovarian
HL-60(TB) leukemia = tested on: HL-60(TB) leukemia
MDA-MB-231 breast = tested on: MDA-MB-231 breast
NCI/ADR-RES ovarian = tested on: NCI/ADR-RES ovarian
HS 578T breast = tested on: HS 578T breast
U251 CNS = tested on: U251 CNS
RPMI-8226 leukemia = tested on: RPMI-8226 leukemia
TK-10 renal = tested on: TK-10 renal
A498 renal = tested on: A498 renal
OVCAR-4 ovarian = tested on: OVCAR-4 ovarian
HT29 colon = tested on: HT29 colon
CCRF-CEM leukemia = tested on: CCRF-CEM leukemia
ACHN renal = tested on: ACHN renal

Structure (SMILES)	TGI (UACC-257 melanoma) [µM]	TGI (SK-OV-3 ovarian) [µM]	TGI (SK-MEL-28 melanoma) [µM]	TGI (IGROV1 ovarian) [µM]	TGI (OVCAR-5 ovarian) [µM]	TGI (HL-60(TB) leukemia) [µM]	TGI (MDA-MB-231 breast) [µM]	TGI (NCI/ADR-RES ovarian) [µM]	TGI (HS 578T breast) [µM]	TGI (U251 CNS) [µM]	TGI (RPMI-8226 leukemia) [µM]	TGI (TK-10 renal) [µM]	TGI (A498 renal) [µM]	TGI (OVCAR-4 ovarian) [µM]	TGI (HT29 colon) [µM]	TGI (CCRF-CEM leukemia) [µM]	TGI (ACHN renal) [µM]	GI50 (TK-10 renal) [µM]	GI50 (A498 renal) [µM]
Clc1ccc(C2=Cc3nc2c(-c2ccccc2)c2ccc([nH]2)c(-c2ccccc2)c2nc(c(-c4ccccc4)c4ccc([nH]4)c3-c3ccccc3)C=C2)cc1	> 62.5	> 62.5	> 62.5	> 62.5	> 62.5	> 62.5	> 62.5	> 62.5	> 62.5	> 62.5	> 62.5	> 62.5	> 62.5	> 62.5	> 62.5	> 62.5	> 62.5	–	–
CCC12CN(C(=O)OC)C3C(Br)C1CCC(=O)C32 (configuration not stated)	> 100	> 100	> 100	> 100	> 100	> 100	> 100	> 100	> 100	> 100	> 100	> 100	> 100	> 100	> 100	> 100	> 100	–	–
COc1ccc(/C=C2/C(=O)N(/C=C3\C(=O)Oc4ccccc4C3=O)C(=NC(C)=O)N2C)cc1OC	> 100	> 100	> 100	> 100	> 100	> 100	> 100	> 100	> 100	> 100	> 100	> 100	> 100	> 100	> 100	> 100	> 100	> 100	> 100
N#CC(C#N)=C(N)/C(C#N)=C/c1ccc(O)c(O)c1	> 100	> 100	> 100	> 100	> 100	> 83.3	> 100	> 100	> 100	> 100	> 100	> 100	> 100	> 100	> 100	> 100	> 100	–	–
CNc1ccc(Cl)cc1C(=O)N1CCC[C@H]1CO	> 100	> 100	> 100	> 100	> 100	> 100	> 100	> 100	> 100	> 100	> 100	> 100	> 100	> 100	> 100	> 100	> 100	–	–
O=C1CCCc2cc3c(cc21)CC1(C3)Cc2cc3c(cc2C1)C(=O)CCC3	31.2	> 44.7	41.7	84.6	> 62.5	4.6	21.6	6.65	> 100	36.5	15.6	43.1	53.6	82.7	7.41	> 34.2	35.8	–	–
O=C(O)C(C(F)(F)F)C(F)(F)F (tested in a mixture with another compound)	> 100	> 100	> 100	> 100	> 100	> 100	> 100	> 100	> 100	> 100	> 100	> 100	> 100	> 100	> 100	> 100	> 100	–	–
Cc1ccc(C2SCc3nc4ccccc4n32)cc1 (configuration not stated)	68.3	85.8	> 100	> 100	> 100	5.94	> 100	12.5	7.17	> 100	38.8	25.1	9.04	92.8	79	> 100	> 100	–	–
C/C(=N\NC(N)=S)C(CN1CCCCC1)C(C1=C(O)c2ccccc2OC1)c1ccccc1 (configuration not stated)	> 100	> 100	> 100	> 100	> 100	88.4	> 100	> 100	> 100	> 100	73.6	> 100	> 100	> 100	> 100	> 100	> 100	–	–
Cc1cc(=O)[nH]c(Sc2ccc([N+](=O)[O-])cc2[N+](=O)[O-])n1	44.7	> 100	38.4	> 100	35.2	11.3	46.9	> 66.3	> 63.4	46.3	18.7	29.6	> 100	> 56.1	19.1	23.1	38.4	–	–
